Source: ChEMBL document CHEMBL5512631, “Research progress of DDR1 inhibitors in the treatment of multiple human diseases” (Eur J Med Chem, 2024)
≈ marks a conversion by molar mass, not a printed value. Blank lines part the entries; values can stand above or below the molecule they belong to.

Assays:
[1] = tested on: U2OS; experiment: Antiproliferative activity against human U2OS cells […] assessed as reduction in cell viability incubated for 24 hrs by MTT assay; format: functional, cell-based
[2] = target: T1, Discoidin domain-containing receptor 2 (Homo sapiens, UniProt Q16832); experiment: Inhibition of human DDR2 by discoverX kinome scan assay
T1 sequence (Q16832 whole entry): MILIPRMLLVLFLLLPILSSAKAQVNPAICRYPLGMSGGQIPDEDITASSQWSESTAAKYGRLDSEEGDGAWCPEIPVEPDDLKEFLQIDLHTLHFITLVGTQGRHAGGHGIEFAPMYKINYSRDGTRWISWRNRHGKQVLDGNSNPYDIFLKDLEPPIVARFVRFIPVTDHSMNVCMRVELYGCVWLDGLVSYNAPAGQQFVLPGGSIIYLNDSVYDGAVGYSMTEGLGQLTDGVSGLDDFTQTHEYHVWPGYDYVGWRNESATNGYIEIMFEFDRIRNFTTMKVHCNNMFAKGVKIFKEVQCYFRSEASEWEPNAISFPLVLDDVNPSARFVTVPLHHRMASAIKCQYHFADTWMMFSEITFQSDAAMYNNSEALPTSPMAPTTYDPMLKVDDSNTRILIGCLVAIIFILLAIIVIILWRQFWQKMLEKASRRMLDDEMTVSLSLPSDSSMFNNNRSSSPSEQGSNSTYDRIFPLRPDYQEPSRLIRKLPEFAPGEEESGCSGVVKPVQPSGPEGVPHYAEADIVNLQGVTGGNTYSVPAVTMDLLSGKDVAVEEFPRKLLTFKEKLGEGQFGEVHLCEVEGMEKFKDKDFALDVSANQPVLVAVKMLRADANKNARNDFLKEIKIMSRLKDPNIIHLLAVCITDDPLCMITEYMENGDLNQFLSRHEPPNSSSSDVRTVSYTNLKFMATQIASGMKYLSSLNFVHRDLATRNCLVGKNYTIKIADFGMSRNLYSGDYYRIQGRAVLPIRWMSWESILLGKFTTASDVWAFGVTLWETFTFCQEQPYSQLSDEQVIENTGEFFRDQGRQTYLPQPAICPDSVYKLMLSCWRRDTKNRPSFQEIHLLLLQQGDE

[3] = target: Vascular endothelial growth factor receptor 2 (Homo sapiens) (UniProt P35968); experiment: Inhibition of KDR (unknown origin) at 100 nM by ADP-Glo assay relative to control
[4] = target: T2, Epithelial discoidin domain-containing receptor 1 (Homo sapiens, UniProt Q08345); experiment: Inhibition of DDR1 (unknown origin)
[5] = target: T2, Epithelial discoidin domain-containing receptor 1; experiment: Binding affinity to DDR1 (unknown origin) assessed as dissociation constant
[6] = Clearance in human liver microsomes measured upto […] by HPLC-MS/MS analysis; format: ADME, Microsome
[7] = Clearance in C57BL/6 mouse at 1 mg/kg, iv measured upto 8 hrs by HPLC analysis; format: ADME, organism-based; conditions: in vivo
[8] = target: Proto-oncogene tyrosine-protein kinase receptor Ret (Homo sapiens) (UniProt P07949); experiment: Inhibition of RET (unknown origin) at 100 uM using Poly(4:1 Glu, Tyr) as substrate in presence of ATP by absorbance based analysis relative to control
[9] = target: Vascular endothelial growth factor receptor 2 (Homo sapiens) (UniProt P35968); experiment: Inhibition of KDR (unknown origin) at 100 nM relative to control
[10] = target: T2, Epithelial discoidin domain-containing receptor 1; experiment: Inhibition of flag-tagged DDR1 (unknown origin) by TR-FRET assay
[11] = target: T1, Discoidin domain-containing receptor 2; experiment: Inhibition of DDR2 (unknown origin) by ADP-Glo assay
[12] = target: T2, Epithelial discoidin domain-containing receptor 1; experiment: Inhibition of DDR1 (unknown origin) using Fluorescein-Poly GAT as substrate by TR-FRET analysis
[13] = target: T1, Discoidin domain-containing receptor 2; experiment: Inhibition of DDR2 (unknown origin) using Fluorescein-Poly GAT as substrate by TR-FRET analysis
[14] = target: T2, Epithelial discoidin domain-containing receptor 1; experiment: Inhibition of GST-tagged recombinant DDR1 (unknown origin) expressed in Escherichia coli BL21 by DiscoverX KINOMEscan assay
[15] = target: T1, Discoidin domain-containing receptor 2; experiment: Inhibition of GST-tagged recombinant DDR2 (unknown origin) expressed in Escherichia coli BL21 by DiscoverX KINOMEscan assay
[16] = target: Receptor-type tyrosine-protein kinase FLT3 (Homo sapiens) (UniProt P36888); experiment: Inhibition of FLT3 (unknown origin) at 100 nM relative to control
[17] = target: T1, Discoidin domain-containing receptor 2; experiment: Inhibition of flag-tagged DDR2 (unknown origin) by TR-FRET assay
[18] = target: T2, Epithelial discoidin domain-containing receptor 1; experiment: Inhibition of DDR1 (unknown origin) at 10 uM by DiscoverX KINOMEscan assay relative to control
[19] = Aqueous solubility of compound in phosphate buffer at pH 6.5; format: physicochemical
[20] = Microsomal stability in rat liver microsomes assessed as intrinsic clearance; format: ADME, Microsome

T2 sequence (Q08345 whole entry, the tested form may be a part): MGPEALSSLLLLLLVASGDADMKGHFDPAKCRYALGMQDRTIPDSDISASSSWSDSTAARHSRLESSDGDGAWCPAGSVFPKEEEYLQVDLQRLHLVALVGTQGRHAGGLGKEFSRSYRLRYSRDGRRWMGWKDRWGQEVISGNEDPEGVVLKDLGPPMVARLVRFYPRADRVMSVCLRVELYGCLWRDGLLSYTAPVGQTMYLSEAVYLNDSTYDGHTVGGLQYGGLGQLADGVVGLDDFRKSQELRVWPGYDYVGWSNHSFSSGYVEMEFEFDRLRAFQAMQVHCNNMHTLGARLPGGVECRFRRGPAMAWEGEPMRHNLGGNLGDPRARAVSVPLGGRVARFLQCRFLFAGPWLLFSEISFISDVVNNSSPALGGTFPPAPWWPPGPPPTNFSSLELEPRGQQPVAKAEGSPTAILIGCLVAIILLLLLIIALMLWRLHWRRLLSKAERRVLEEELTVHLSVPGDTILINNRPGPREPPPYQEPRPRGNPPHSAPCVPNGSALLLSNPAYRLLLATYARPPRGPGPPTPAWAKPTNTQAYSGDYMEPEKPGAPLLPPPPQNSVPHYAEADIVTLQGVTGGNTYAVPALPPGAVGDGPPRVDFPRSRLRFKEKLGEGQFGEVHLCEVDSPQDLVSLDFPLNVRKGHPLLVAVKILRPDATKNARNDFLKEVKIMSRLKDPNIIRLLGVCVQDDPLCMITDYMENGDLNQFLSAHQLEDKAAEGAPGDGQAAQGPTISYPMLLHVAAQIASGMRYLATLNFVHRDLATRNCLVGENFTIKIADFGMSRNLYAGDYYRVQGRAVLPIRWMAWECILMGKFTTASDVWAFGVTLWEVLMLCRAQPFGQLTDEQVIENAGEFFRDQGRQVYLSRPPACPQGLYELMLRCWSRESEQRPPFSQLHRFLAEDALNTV
Chain of Vascular endothelial growth factor receptor 2 (Homo sapiens) (P35968 whole entry, the tested form may be a part): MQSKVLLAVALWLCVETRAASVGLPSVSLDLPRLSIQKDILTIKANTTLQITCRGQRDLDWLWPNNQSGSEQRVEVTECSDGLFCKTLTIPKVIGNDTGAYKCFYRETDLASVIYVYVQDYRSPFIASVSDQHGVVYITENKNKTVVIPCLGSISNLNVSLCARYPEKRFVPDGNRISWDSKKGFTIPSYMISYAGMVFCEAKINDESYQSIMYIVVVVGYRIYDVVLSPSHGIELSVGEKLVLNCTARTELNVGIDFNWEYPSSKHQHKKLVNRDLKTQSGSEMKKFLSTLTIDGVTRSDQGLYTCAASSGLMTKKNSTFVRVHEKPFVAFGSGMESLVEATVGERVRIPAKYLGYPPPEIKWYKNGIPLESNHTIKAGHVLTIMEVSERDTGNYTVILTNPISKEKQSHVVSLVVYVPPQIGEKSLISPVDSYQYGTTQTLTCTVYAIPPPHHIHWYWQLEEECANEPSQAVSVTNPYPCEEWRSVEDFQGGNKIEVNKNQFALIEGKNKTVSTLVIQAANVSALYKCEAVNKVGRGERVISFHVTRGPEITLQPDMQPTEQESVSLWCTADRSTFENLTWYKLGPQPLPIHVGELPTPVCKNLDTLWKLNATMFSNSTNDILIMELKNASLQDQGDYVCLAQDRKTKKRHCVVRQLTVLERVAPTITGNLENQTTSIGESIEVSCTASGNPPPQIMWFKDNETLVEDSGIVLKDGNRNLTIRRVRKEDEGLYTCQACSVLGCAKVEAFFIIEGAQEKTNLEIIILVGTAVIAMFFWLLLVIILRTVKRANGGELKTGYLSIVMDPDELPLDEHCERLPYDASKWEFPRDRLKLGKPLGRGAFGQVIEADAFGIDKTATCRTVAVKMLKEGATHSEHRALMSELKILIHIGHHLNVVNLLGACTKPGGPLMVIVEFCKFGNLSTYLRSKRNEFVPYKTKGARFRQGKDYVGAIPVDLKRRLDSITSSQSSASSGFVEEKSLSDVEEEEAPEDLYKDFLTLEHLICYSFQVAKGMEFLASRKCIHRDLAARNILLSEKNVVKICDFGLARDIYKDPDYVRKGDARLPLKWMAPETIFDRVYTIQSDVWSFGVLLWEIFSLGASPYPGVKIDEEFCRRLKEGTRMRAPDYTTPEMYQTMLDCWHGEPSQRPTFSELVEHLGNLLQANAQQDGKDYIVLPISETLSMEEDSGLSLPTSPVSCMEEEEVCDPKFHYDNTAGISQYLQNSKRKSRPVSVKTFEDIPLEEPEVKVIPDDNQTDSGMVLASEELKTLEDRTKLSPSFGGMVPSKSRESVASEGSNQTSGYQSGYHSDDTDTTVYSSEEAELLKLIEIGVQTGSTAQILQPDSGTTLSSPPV
Chain of Proto-oncogene tyrosine-protein kinase receptor Ret (Homo sapiens) (P07949 whole entry): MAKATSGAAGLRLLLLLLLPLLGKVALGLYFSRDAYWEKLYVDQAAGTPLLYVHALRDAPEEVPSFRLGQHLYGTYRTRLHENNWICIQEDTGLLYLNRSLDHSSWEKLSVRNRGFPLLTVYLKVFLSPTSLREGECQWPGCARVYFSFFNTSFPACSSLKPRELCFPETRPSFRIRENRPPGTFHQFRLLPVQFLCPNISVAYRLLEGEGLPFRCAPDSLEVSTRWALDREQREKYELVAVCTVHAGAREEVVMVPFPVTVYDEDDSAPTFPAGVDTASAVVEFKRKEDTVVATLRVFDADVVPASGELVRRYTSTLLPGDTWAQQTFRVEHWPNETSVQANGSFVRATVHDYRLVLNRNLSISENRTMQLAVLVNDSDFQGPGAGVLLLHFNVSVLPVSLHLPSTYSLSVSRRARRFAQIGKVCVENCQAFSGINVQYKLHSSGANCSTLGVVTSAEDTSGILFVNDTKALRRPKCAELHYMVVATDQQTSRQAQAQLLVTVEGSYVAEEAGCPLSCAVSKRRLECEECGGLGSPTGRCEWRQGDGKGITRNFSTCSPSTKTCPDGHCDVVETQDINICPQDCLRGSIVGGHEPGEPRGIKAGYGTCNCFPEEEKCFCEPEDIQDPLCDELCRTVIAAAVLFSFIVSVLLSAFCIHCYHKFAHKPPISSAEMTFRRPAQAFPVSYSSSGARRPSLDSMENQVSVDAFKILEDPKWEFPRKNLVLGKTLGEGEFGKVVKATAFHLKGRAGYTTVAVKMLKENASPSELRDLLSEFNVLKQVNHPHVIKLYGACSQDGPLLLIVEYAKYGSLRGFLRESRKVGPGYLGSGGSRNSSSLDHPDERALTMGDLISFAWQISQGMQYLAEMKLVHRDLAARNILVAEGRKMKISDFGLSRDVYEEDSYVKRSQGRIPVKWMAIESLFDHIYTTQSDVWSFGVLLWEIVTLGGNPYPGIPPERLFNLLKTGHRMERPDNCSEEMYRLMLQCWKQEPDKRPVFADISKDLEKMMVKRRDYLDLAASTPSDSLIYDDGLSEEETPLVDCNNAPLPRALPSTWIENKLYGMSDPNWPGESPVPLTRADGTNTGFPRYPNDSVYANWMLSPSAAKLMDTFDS
Chain of Receptor-type tyrosine-protein kinase FLT3 (Homo sapiens) (P36888 whole entry, the tested form may be a part): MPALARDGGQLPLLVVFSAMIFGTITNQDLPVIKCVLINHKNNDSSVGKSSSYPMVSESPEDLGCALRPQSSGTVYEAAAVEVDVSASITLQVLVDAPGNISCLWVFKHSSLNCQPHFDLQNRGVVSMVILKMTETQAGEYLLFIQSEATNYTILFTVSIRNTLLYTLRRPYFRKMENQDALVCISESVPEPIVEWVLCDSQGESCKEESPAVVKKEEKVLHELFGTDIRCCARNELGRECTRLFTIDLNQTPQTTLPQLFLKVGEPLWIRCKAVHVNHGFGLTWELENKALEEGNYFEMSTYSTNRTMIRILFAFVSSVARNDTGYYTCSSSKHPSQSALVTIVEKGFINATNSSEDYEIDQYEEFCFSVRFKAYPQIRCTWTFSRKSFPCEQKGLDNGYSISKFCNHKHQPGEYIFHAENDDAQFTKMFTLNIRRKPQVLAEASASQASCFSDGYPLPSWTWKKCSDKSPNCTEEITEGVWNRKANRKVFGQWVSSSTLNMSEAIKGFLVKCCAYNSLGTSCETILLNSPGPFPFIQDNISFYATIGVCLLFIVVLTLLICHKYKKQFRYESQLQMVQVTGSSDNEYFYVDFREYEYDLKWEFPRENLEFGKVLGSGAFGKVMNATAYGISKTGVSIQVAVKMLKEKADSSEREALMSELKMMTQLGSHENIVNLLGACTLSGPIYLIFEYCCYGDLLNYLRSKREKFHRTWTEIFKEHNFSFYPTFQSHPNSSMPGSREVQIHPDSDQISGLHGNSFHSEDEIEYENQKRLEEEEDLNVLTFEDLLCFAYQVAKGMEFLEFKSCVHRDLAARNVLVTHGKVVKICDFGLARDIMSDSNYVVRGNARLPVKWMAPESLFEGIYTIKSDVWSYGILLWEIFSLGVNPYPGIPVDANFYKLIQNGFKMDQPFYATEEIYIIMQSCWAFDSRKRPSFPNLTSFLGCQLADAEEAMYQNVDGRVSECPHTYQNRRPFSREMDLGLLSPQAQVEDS

SMILES: Cc1cccc(C(=O)N[C@@H](C)c2ccc(C3CC3)c(-c3ccc4nc(Nc5cnn(C6CC6)c5)ncc4c3)c2)c1
IC50 [2]: 31 nM
inhibition [3]: 24.2%

SMILES: O=C(Nc1cccc(C(F)(F)F)c1)c1ccc(C2CC2)c(-c2ccc3nc(Nc4cnn(C5CC5)c4)ncc3c2)c1
inhibition [8]: 18.6%
inhibition [9]: 100%
IC50 [10]: 17.2 nM

SMILES: Cc1ccc(C(=O)Nc2cccc(C(F)(F)F)c2)cc1NCc1cccc(C(N)=O)c1
IC50 [11]: 4.79 nM

SMILES: Cc1cccc(Cl)c1NC(=O)c1cnc(Nc2cc(N3CCN(C(=O)OCCN4CCOCC4)CC3)ncn2)s1
IC50 [12]: 2.26 nM
IC50 [13]: 7.04 nM

SMILES: O=C(Cc1ccc(Cl)c(COc2ccccc2)c1)c1cccc(C(F)(F)F)c1
IC50 [4]: 92.5 nM

SMILES: Cc1ccc2c(Nc3cccc(C(F)(F)F)c3)noc2c1C#Cc1cn2ncccc2n1
IC50 [14]: 10 nM

SMILES: Cc1ccc(C(=O)Nc2cccc(C(F)(F)F)c2)cc1-c1ccc2nc(Nc3cnn(C)c3)ncc2c1
inhibition [8]: 97.2%
inhibition [16]: 80.3%
IC50 [17]: 2.2 nM

SMILES: CCc1cccc2c(/C=C3\NC(=S)N(c4ccc(C)c(C)c4)C3=O)cn(CC(=O)NCCOC)c12
inhibition [18]: 70.4%

SMILES: Cc1ccc(C(=O)Nc2cccc(C(F)(F)F)c2)cc1Nc1cncc(C(N)=O)c1
CLint [20]: 60 µL/min/mg

Results, then the molecule that gave them:

EC50 [1]: 86 nM
SMILES: CCN1CCN(Cc2ccc(C(=O)Nc3ccc(C)c(Oc4ccc5c(c4)CC(=O)N5)c3)cc2C(F)(F)F)CC1

IC50 [4]: 6.6 nM
Kd [5]: 2.2 nM
SMILES: CCc1ccc(C(=O)Nc2cc(CN3CCN(C)CC3)cc(C(F)(F)F)c2)cc1-c1cccc(-c2cnc3ccnn3c2)c1

CLH [6]: 10 µL/min/mg
clearance [7]: 103 mL/min/kg
SMILES: O=C(CN1C(=O)C2(CCN(C(=O)c3ccc4[nH]ncc4n3)CC2)c2c(Br)cccc21)NCC(F)(F)F

CLH [6]: 12 µL/min/mg
clearance [7]: 110 mL/min/kg
SMILES: CNC(=O)CN1CN(c2ccccc2)C2(CCN(C(=O)c3ccc4[nH]ncc4c3)CC2)C1=O

IC50 [4]: 10.6 nM
SMILES: Cc1c(-c2c3c(N)n[nH]c(=O)c3nn2-c2ccc(C(N)=O)cc2)oc2cc(C(=O)Nc3ccccc3C(F)(F)F)ccc12

IC50 [14]: 15 nM
IC50 [15]: 820 nM
SMILES: O=C(CN1CN(c2ccccc2)C2(CCN(C(=O)c3ccc4[nH]ncc4c3)CC2)C1=O)NCC(F)(F)F

CLH [6]: 28 µL/min/mg
clearance [7]: 120 mL/min/kg
IC50 [14]: 18 nM
solubility [19]: 365 µg/mL (≈ 708 µM)
IC50 [15]: 858 nM
SMILES: O=C(CN1CN(c2ccccc2)C2(CCN(C(=O)c3ccc4[nH]ncc4n3)CC2)C1=O)NCC(F)(F)F

IC50 [4]: 10.2 nM
SMILES: CC(=O)Nc1ccc(-n2nc3c(=O)[nH]nc(N)c3c2-c2oc3cc(C(=O)Nc4ccccc4C(F)(F)F)ccc3c2C)cc1
